Values joined by “and” are separate entries in the source; they are usually repeats but may differ in a detail not shown here. Equal values may be shown once.
Assays:
Format in all cases: in vivo
[1] = tested on: Digitaria sanguinalis; experiment: greenhouse post-emergence treatment, DIGSA; settings: 20 DAT; for % activity: DIGSA
Description: (§1) The culture containers used were plastic pots containing loamy sand with approximately 3.0% of humus as substrate. The seeds of the test plants were sown separately for each species.
(§2) To this end, the test plants were either sown directly, and grown in the same containers, or they were first grown separately as seedlings and transplanted into the test containers a few days prior to treatment.
(§3) Depending on the species, the plants were kept at 10-25° C. and 20-35° C., respectively.
(§4) The test period extended over 2 to 4 weeks. During this time, the plants were tended and their response to the individual treatments was evaluated.
(§5) Evaluation was carried out using a scale from 0 to 100. 100 means no emergence of the plants, or complete destruction of at least the above-ground parts, and 0 means no damage or normal course of growth. A good herbicidal activity is given at values of at least 70, and very good herbicidal activity is given at values of at least 85.
(§6) In the examples, the solvent used was water.
(§7) In the examples below, using the method of S. R. Colby (1967) “Calculating synergistic and antagonistic responses of herbicide combinations”, Weeds 15, p. […] E=X+Y−(X·Y/100) where X=effect in percent using herbicide A at an application rate a; • Y=effect in percent using herbicide B at application rate b; • E=expected effect (in %) of herbicide A+herbicide B at application rates a+b.

[2] = tested on: Bromus sterilis; experiment: greenhouse post-emergence treatment, BROST; settings: 20 DAT; for % activity: BROST
Description: as §1, §2, §3, §4, §5, §6, §7

[3] = tested on: Brachiaria decumbens; experiment: greenhouse post-emergence treatment, BRADC; settings: 20 DAT; for % activity: BRADC
Description: as §1
(§8) For the post-emergence treatment, the test plants were grown to a plant height of from 3 to 15 cm, depending on the plant habit, and only then treated with the active compounds which had been suspended or emulsified in water. To this end, the test plants were either sown directly, and grown in the same containers, or they were first grown separately as seedlings and transplanted into the test containers a few days prior to treatment.
as §3, §4, §5
(§9) The respective stated components A and B, and if appropriate, C were formulated as a 10% by weight strength emulsion concentrate and, with addition of the amount of solvent system, introduced into the spray liquor used for applying the active compound. In the examples, the solvent used was water.
(§10) In the examples below, using the method of S. R. Colby (1967) “Calculating synergistic and antagonistic responses of herbicide combinations”, Weeds 15, p. 22ff., the value E, which is expected if the activity of the individual active compounds is only additive, was calculated. E=X+Y−(X·Y/100) where X=effect in percent using herbicide A at an application rate a; • Y=effect in percent using herbicide B at application rate b; • E=expected effect (in %) of herbicide A+herbicide B at application rates a+b.

[4] = tested on: Alopecurus myosuroides; experiment: greenhouse post-emergence treatment, ALOMY; settings: Alopecurus myosuroides, 480 h, 20 DAT, ALOMY
Description: as §1, §2, §3, §4, §5, §6, §7

[5] = tested on: Avena fatua; experiment: greenhouse post-emergence treatment, AVEFA; settings: Avena fatua, 480 h, 20 DAT
Description: as §1, §2, §3, §4, §5, §6, §7

[6] = tested on: Papaver rhoeas; experiment: greenhouse post-emergence treatment, PAPRH; settings: 20 DAT
Description: as §1, §8, §3, §4, §5, §9, §10

[7] = tested on: Matricaria chamomilla; experiment: greenhouse post-emergence treatment, MATCH; settings: MATCH, 20 DAT
Description: as §1, §8, §3, §4, §5, §9, §10

[8] = tested on: Lolium multiflorum; experiment: greenhouse post-emergence treatment, LOLMU; settings: 20 DAT; for % activity: LOLMU
Description: as §1, §2, §3, §4, §5, §6, §7

[9] = tested on: Setaria viridis; experiment: greenhouse post-emergence treatment, SETVI; settings: 20 DAT; for % activity: SETVI
Description: as §1, §2, §3, §4, §5, §6, §7

[10] = tested on: Galium aparine; experiment: greenhouse post-emergence treatment, GALAP; settings: GALAP, 20 DAT
Description: as §1, §8, §3, §4, §5, §9, §10

[11] = tested on: Ambrosia elatior; experiment: greenhouse post-emergence treatment, AMBEL; settings: 20 DAT
Description: as §1, §8, §3, §4, §5, §9, §10

[12] = solo pyroxsulam (SC 30 g/l) 1.875 gai/ha
[13] = solo pyroxsulam (SC 30 g/l) 3.75 gai/ha
[14] = solo pyroxsulam (SC 30 g/l) 7.5 gai/ha

What does the source list for `COc1nc(C)nc(NC(=O)NS(=O)(=O)c2cc(I)ccc2C(=O)O)n1` [iodosulfuron]?
inhibition at 1.25 g/ha ([1]; Digitaria sanguinalis, 480 h, iodosulfuron solo 1.25 gai/ha): 0%; inhibition at […] ([1]; Digitaria sanguinalis, 480 h, iodosulfuron solo 2.5 gai/ha): 20%; inhibition at 5 g/ha ([1]; Digitaria sanguinalis, 480 h, iodosulfuron solo 5 gai/ha): 50%; inhibition at 1.25 g/ha ([2]; Bromus sterilis, 480 h, iodosulfuron solo 1.25 gai/ha): 0%; inhibition at […] ([2]; Bromus sterilis, 480 h, iodosulfuron solo 2.5 gai/ha): 0%; inhibition at 5 g/ha ([2]; Bromus sterilis, 480 h, iodosulfuron solo 5 gai/ha): 0%; inhibition at […] ([3]; Urochloa decumbens, 480 h, iodosulfuron solo 2.5 gai/ha): 20%; inhibition at 5 g/ha ([3]; Urochloa decumbens, 480 h, iodosulfuron solo 5 gai/ha): 30%

Which results are given for `CCc1cc(C)cc(CC)c1-c1c(OC(=O)C(C)(C)C)n2n(c1=O)CCOCC2` [pinoxaden]?
inhibition at […] ([4]; pinoxaden solo 7.5 gai/ha): 75%; inhibition at 60 g/ha ([4]; pinoxaden solo 60 gai/ha): 94%; pest or weed control at […] ([4]; solo, EC 50 g/l, 7.5 gai/ha): 48%; pest or weed control at […] ([5]; solo, EC 50 g/l, AVEFA, 7.5 gai/ha): 33%

`COc1cc(OC)n2nc(NS(=O)(=O)c3c(C(F)(F)F)ccnc3OC)nc2n1` [pyroxsulam] was tested. Which “% activity” value ([6]; PAPRH, solo pyroxsulam (SC 30 g/l) 1.875 gai/ha) did it give?
The value was 0%.

And the “% activity” value ([6]; PAPRH, solo pyroxsulam (SC 30 g/l) 3.75 gai/ha)?
The value was 0%.

What about the “% activity” value ([6]; PAPRH, solo pyroxsulam (SC 30 g/l) 7.5 gai/ha) of the same compound?
Its value is 30%.

What about the “% activity” value ([6]; PAPRH, solo pyroxsulam (SC 30 g/l) 15 gai/ha) of the same compound?
The value was 70%.

And the “% activity” value ([6]; pyroxsulam solo 1.875 gai/ha, PAPRH)?
The value was 0%.

What about the “% activity” value ([6]; pyroxsulam solo 3.75 gai/ha, PAPRH) of the same compound?
The value was 0%.

And the “% activity” value ([6]; pyroxsulam solo 7.5 gai/ha, PAPRH)?
Its value is 30%.

What about the “% activity” value ([6]; pyroxsulam solo 15 gai/ha, PAPRH) of the same compound?
Its value is 70%.

And the “% activity” value [7, 12]?
Its value is 30%.

What about the “% activity” value [7, 13] of the same compound?
Its value is 60%.

What about the “% activity” value ([7]; solo pyroxsulam (SC 30 g/l) 15 gai/ha) of the same compound?
Its value is 80%.

And the “% activity” value ([7]; pyroxsulam solo 1.875 gai/ha)?
Its value is 30%.

And the “% activity” value ([7]; pyroxsulam solo 3.75 gai/ha)?
The value was 60%.

And the “% activity” value ([7]; pyroxsulam solo 15 gai/ha)?
The value was 80%.

What about the “% activity” value ([8]; pyroxsulam solo 1.875 gai/ha) of the same compound?
Its value is 60% and 80%.

And the “% activity” value ([8]; pyroxsulam solo 3.75 gai/ha)?
Its value is 65%.

What about the “% activity” value ([8]; pyroxsulam solo 7.5 gai/ha) of the same compound?
Its value is 80%.

What about the “% activity” value [9, 12] of the same compound?
The value was 75%.

And the “% activity” value ([9]; pyroxsulam solo 1.875 gai/ha)?
Its value is 75%.

What about the “% activity” value [10, 12] of the same compound?
The value was 60%.

And the “% activity” value [10, 13]?
Its value is 65%.

What about the “% activity” value [10, 14] of the same compound?
Its value is 75%.

And the “% activity” value ([10]; pyroxsulam solo 1.875 gai/ha)?
Its value is 60%.

And the “% activity” value ([10]; pyroxsulam solo 3.75 gai/ha)?
Its value is 65%.

And the “% activity” value ([10]; pyroxsulam solo 7.5 gai/ha)?
The value was 75%.

And the “% activity” value ([10]; pyroxsulam solo 15 gai/ha)?
The value was 90%.

What about the “% activity” value [1, 14] of the same compound?
The value was 80%.

And the “% activity” value ([1]; pyroxsulam solo 1.875 gai/ha)?
Its value is 65%.

What about the “% activity” value ([1]; pyroxsulam solo 3.75 gai/ha) of the same compound?
Its value is 75%.

And the “% activity” value ([1]; pyroxsulam solo 7.5 gai/ha)?
The value was 80%.

What about the “% activity” value [2, 12] of the same compound?
Its value is 60%.

And the “% activity” value ([2]; pyroxsulam solo 1.875 gai/ha)?
The value was 60%.

And the “% activity” value ([2]; pyroxsulam solo 3.75 gai/ha)?
Its value is 70%.

What about the “% activity” value ([2]; pyroxsulam solo 7.5 gai/ha) of the same compound?
The value was 75%.

What about the “% activity” value [3, 12] of the same compound?
Its value is 20%.

What about the “% activity” value ([3]; pyroxsulam solo 1.875 gai/ha) of the same compound?
The value was 20%.

And the “% activity” value ([3]; pyroxsulam solo 3.75 gai/ha)?
Its value is 75%.

What about the “% activity” value ([11]; pyroxsulam solo 1.875 gai/ha, AMBEL) of the same compound?
Its value is 70%.

With `CCS(=O)(=O)c1nc2ccccn2c1S(=O)(=O)NC(=O)Nc1nc(OC)cc(OC)n1` [sulfosulfuron] as the compound, how does the inhibition at […] ([6]; Papaver rhoeas, 480 h, sulfosulfuron solo 1.5 gai/ha) read?
Its inhibition at […] is 25%.

And the inhibition at 3 g/ha ([6]; Papaver rhoeas, 480 h, sulfosulfuron solo 3 gai/ha)?
Its inhibition at 3 g/ha is 80%.

What about the pest or weed control at […] ([6]; Papaver rhoeas, 480 h, PAPRH, solo sulfosulfuron (WG 80%) 1.5 gai/ha) of the same compound?
The pest or weed control at […] was 25%.

What about the inhibition at […] ([5]; sulfosulfuron solo 1.5 gai/ha) of the same compound?
Its inhibition at […] is 0%.

What about the inhibition at 3 g/ha ([5]; sulfosulfuron solo 3 gai/ha) of the same compound?
Its inhibition at 3 g/ha is 0%.

And the inhibition at […] ([8]; Lolium multiflorum, 480 h, sulfosulfuron solo 1.5 gai/ha)?
Its inhibition at […] is 0%.

What about the inhibition at 3 g/ha ([8]; Lolium multiflorum, 480 h, sulfosulfuron solo 3 gai/ha) of the same compound?
Its inhibition at 3 g/ha is 0%.

And the inhibition at 6 g/ha ([8]; Lolium multiflorum, 480 h, sulfosulfuron solo 6 gai/ha)?
The inhibition at 6 g/ha was 10%.

What about the inhibition at 12 g/ha ([8]; Lolium multiflorum, 480 h, sulfosulfuron solo 12 gai/ha) of the same compound?
The inhibition at 12 g/ha was 35%.

What about the inhibition at […] ([9]; Setaria viridis, 480 h, sulfosulfuron solo 1.5 gai/ha) of the same compound?
Its inhibition at […] is 50%.

What about the inhibition at 6 g/ha ([9]; Setaria viridis, 480 h, sulfosulfuron solo 6 gai/ha) of the same compound?
Its inhibition at 6 g/ha is 65%.

And the inhibition at 12 g/ha ([9]; Setaria viridis, 480 h, sulfosulfuron solo 12 gai/ha)?
Its inhibition at 12 g/ha is 75%.

What about the pest or weed control at […] ([10]; Galium aparine, 480 h, solo sulfosulfuron (WG 80%) 1.5 gai/ha) of the same compound?
The pest or weed control at […] was 65%.

What about the pest or weed control at 3 g/ha ([10]; Galium aparine, 480 h, solo sulfosulfuron (WG 80%) 3 gai/ha) of the same compound?
Its pest or weed control at 3 g/ha is 85%.

And the inhibition at […] ([1]; Digitaria sanguinalis, 480 h, sulfosulfuron solo 1.5 gai/ha)?
The inhibition at […] was 0%.

And the inhibition at 3 g/ha ([1]; Digitaria sanguinalis, 480 h, sulfosulfuron solo 3 gai/ha)?
Its inhibition at 3 g/ha is 20%.

And the inhibition at 12 g/ha ([1]; Digitaria sanguinalis, 480 h, sulfosulfuron solo 12 gai/ha)?
Its inhibition at 12 g/ha is 65%.

What about the inhibition at […] ([2]; Bromus sterilis, 480 h, sulfosulfuron solo 1.5 gai/ha) of the same compound?
The inhibition at […] was 0%.

And the inhibition at 3 g/ha ([2]; Bromus sterilis, 480 h, sulfosulfuron solo 3 gai/ha)?
Its inhibition at 3 g/ha is 50%.

And the inhibition at 12 g/ha ([2]; Bromus sterilis, 480 h, sulfosulfuron solo 12 gai/ha)?
Its inhibition at 12 g/ha is 70%.

What about the inhibition at […] ([3]; Urochloa decumbens, 480 h, sulfosulfuron solo 1.5 gai/ha) of the same compound?
Its inhibition at […] is 20%.

What about the inhibition at 12 g/ha ([3]; Urochloa decumbens, 480 h, sulfosulfuron solo 12 gai/ha) of the same compound?
Its inhibition at 12 g/ha is 80%.

What about the inhibition at […] ([11]; Ambrosia artemisiifolia, 480 h, sulfosulfuron solo 1.5 gai/ha) of the same compound?
The inhibition at […] was 70%.

— patent publication US10966426B2, “Herbicidal compositions comprising phenylpyrimidines” (BASF SE, priority 2016, dated 2021)
